Where two headings read alike, the source gives them in different places. Peptide text beside a SMILES is read from it.
Test system: M. mycetomatis genome strain MM55
Assay: CLSI M38-A2 based in vitro susceptibility screening (XTT or resazurin), growth at fixed concentration
Format: cell-based, Madurella mycetomatis
[1] = Madurella mycetomatis, 25 uM, mean of three replicates, read-out: Percentage survival at 25um, 25 uM mean
[2] = Madurella mycetomatis, 25 uM, replicate A, read-out: Percentage survival at 25um, 25 um A
[3] = Madurella mycetomatis, 25 uM, replicate B, read-out: Percentage survival at 25um, 25 uM B
[4] = Madurella mycetomatis, 25 uM, replicate C, read-out: Percentage survival at 25um, 25 uM C
[5] = Madurella mycetomatis, 100 uM, mean of three replicates, read-out: Percentage survival at 100um, 100 uM mean
[6] = Madurella mycetomatis, 25 uM, mean, read-out: Percentage survival at 25um, 25 uM mean
[7] = Madurella mycetomatis, 100 uM, mean, read-out: Percentage survival at 100um, 100 uM mean
[8] = Madurella mycetomatis, 100 uM, replicate (first column), read-out: Percentage survival at 100um, 100 uM A
[9] = Madurella mycetomatis, 100 uM, replicate (second column), read-out: Percentage survival at 100um, 100 uM A
[10] = Madurella mycetomatis, 100 uM, replicate (third column), read-out: Percentage survival at 100um, 100 uM A
[11] = Madurella mycetomatis, 100 uM, first replicate column, read-out: Percentage survival at 100um, 100 uM A
[12] = Madurella mycetomatis, 100 uM, second replicate column, read-out: Percentage survival at 100um, 100 uM A
[13] = Madurella mycetomatis, 100 uM, third replicate column, read-out: Percentage survival at 100um, 100 uM A
[14] = Madurella mycetomatis, 25 uM, mean of replicates, MM55, read-out: Percentage survival at 25um, 25 uM mean
[15] = Madurella mycetomatis, 25 uM, replicate A, MM55, read-out: Percentage survival at 25um, 25 um A
[16] = Madurella mycetomatis, 25 uM, replicate B, MM55, read-out: Percentage survival at 25um, 25 uM B
[17] = Madurella mycetomatis, 25 uM, replicate C, MM55, read-out: Percentage survival at 25um, 25 uM C
[18] = Madurella mycetomatis, 100 uM, mean of replicates, MM55, read-out: Percentage survival at 100um, 100 uM mean
[19] = Madurella mycetomatis, 100 uM, replicate 1, MM55, read-out: Percentage survival at 100um, 100 uM A
[20] = Madurella mycetomatis, 100 uM, replicate 2, MM55, read-out: Percentage survival at 100um, 100 uM A
[21] = Madurella mycetomatis, 100 uM, replicate 3, MM55, read-out: Percentage survival at 100um, 100 uM A

Row | Compound | activity at 25 µM [1] | activity at 25 µM [2] | activity at 25 µM [3] | activity at 25 µM [4] | activity at 100 µM [5] | activity at 25 µM [14] | activity at 25 µM [15] | activity at 25 µM [16] | activity at 25 µM [17] | activity at 100 µM [18] | activity at 100 µM [19] | activity at 100 µM [20] | activity at 100 µM [21] | further results
1 | CC(N)C(=O)NC(CCCCN)C(=O)NC(CCCNC(=N)N)C(=O)NC(Cc1c[nH]cn1)C(=O)NC(Cc1c[nH]cn1)C(=O)NCC(=O)NC(Cc1ccc(O)cc1)C(=O)NC(CCCCN)C(=O)NC(CCCNC(=N)N)C(=O)NC(CCCCN)C(=O)NC(Cc1ccccc1)C(=O)NC(Cc1c[nH]cn1)C(N)=O (centres unmarked) [MMV1579849] (H-AKRHHGYKRKFH-NH2; configuration not given here) | – | – | – | – | – | – | – | – | – | – | – | – | – | Percentage survival at 25um, 25 uM mean (25 uM, mean of three, M. mycetomatis MM55): 88.4824%; Percentage survival at 25um, 25 um A (25 uM, replicate A, M. mycetomatis MM55): 86.8656%; Percentage survival at 25um, 25 uM B (25 uM, replicate B, M. mycetomatis MM55): 93.5744%; Percentage survival at 25um, 25 uM C (25 uM, replicate C, M. mycetomatis MM55): 85.0073%; Percentage survival at 100um, 100 uM mean (100 uM, mean of three, M. mycetomatis MM55): 95.7644%; Percentage survival at 100um, 100 uM A (first replicate column) (100 uM, replicate 1, M. mycetomatis MM55): 92.1348%; Percentage survival at 100um, 100 uM A (second replicate column) (100 uM, replicate 2, M. mycetomatis MM55): 102.447%; Percentage survival at 100um, 100 uM A (third replicate column) (100 uM, replicate 3, M. mycetomatis MM55): 92.7112%
2 | N[C@@H]1CN(c2c(F)cc3c(=O)c(C(=O)O)cn([C@@H]4C[C@@H]4F)c3c2Cl)CC12CC2 [MMV1579850] | 85.6% | 82.4% | 85.7% | 88.6% | 83.7% | – | – | – | – | – | – | – | – | activity at 100 µM (Madurella mycetomatis, 100 uM, replicate 1, read-out: Percentage survival at 100um, 100 uM A (first replicate column)): 86.1%; Percent fungal survival at 100 µM (Madurella mycetomatis, 100 uM, replicate 2, read-out: Percentage survival at 100um, 100 uM A (second replicate column)): 82.9%; activity at 100 µM (Madurella mycetomatis, 100 uM, replicate 3, read-out: Percentage survival at 100um, 100 uM A (third replicate column)): 82%
3 | O=C(O)c1ccccc1Sc1ncnc2sc3c(c12)CCC3 [MMV1579878] | – | 89.3% | 87% | 74.1% | – | – | – | – | – | – | – | – | – | activity at 25 µM [6]: 83.5%; activity at 100 µM [7]: 57%; activity at 100 µM [8]: 1.56%; activity at 100 µM [9]: 73.3%; activity at 100 µM [10]: 96.2%
4 | COc1cc(NCc2ccc3nc(N)nc(N)c3c2C)cc(OC)c1OC [MMV1580173] | – | 96.5% | 46.2% | 78.3% | – | – | – | – | – | – | – | – | – | activity at 25 µM [6]: 73.6%; activity at 100 µM [7]: 55.4%; activity at 100 µM [8]: 74.1%; activity at 100 µM [9]: 4.19%; activity at 100 µM [10]: 88%
5 | C[C@H](Cn1cnc2c(N)ncnc21)OCP(=O)(O)O [MMV1580478] | 99.2% | 98.1% | 110% | 89.5% | 89% | – | – | – | – | – | – | – | – | activity at 100 µM [11]: 94.5%; activity at 100 µM [12]: 87.6%; activity at 100 µM [13]: 84.8%
6 | CN(C)CC(=O)Nc1ccc2[nH]c(=O)c3ccccc3c2c1 [MMV1580480] | – | – | – | – | – | 94.3% | 106% | 107% | 70.4% | 76.4% | 87.1% | 63.4% | 78.7% | –
7 | COc1ccccc1NC(=O)c1ccccc1Sc1ccc([N+](=O)[O-])cc1 [MMV1580484] | 65.2% | 65.9% | 69.7% | 60.2% | 60.4% | – | – | – | – | – | – | – | – | activity at 100 µM [11]: 60.9%; activity at 100 µM [12]: 56%; activity at 100 µM [13]: 64.4%
8 | COc1ccc(OCc2ccc(COc3c(Cl)cccc3Cl)cc2)c(Cl)c1 [MMV1580485] | – | – | – | – | – | 89.3% | 92.6% | 89.4% | 85.7% | 77.9% | 89.9% | 70.7% | 73.2% | –
9 | Cc1nc(N(C)C(=O)Cc2ccc(-c3ccccn3)cc2)sc1S(N)(=O)=O [MMV1580486] | – | – | – | – | – | 82.6% | 102% | 96.5% | 49.6% | 83.5% | 93.3% | 93.6% | 63.7% | –
10 | C/C(=N\NC(=O)C1CC1c1ccccc1)c1ccc(NC(=O)c2ccco2)cc1 (centres unmarked) [MMV1580487] | – | – | – | – | – | 83.7% | 79.1% | 93.7% | 78.4% | 85.2% | 91.2% | 88% | 76.5% | –

From article PMC8815882, “Screening the pandemic response box identified benzimidazole carbamates, Olorofim and ravuconazole as promising drug candidates for the treatment of eumycetoma” (PLoS Neglected Tropical Diseases, 2022)
